Test results from patent US9562035B2, “Benzamide derivative useful as FASN inhibitors for the treatment of cancer” (Janssen Pharmaceutica NV, priority 2013, dated 2017).
pIC50: −log10 of the molar value.

How the values were obtained:
[1] = biological target: T1, hFASN enzyme (full length) (Homo sapiens, UniProt P49327); assay: Fatty Acid Synthase (FASN) Inhibition Scintillation Proximity Assay; format: biochemical; settings: for pIC50: mean where tested more than once, ~ = standard error of pIC50 larger than 0.5; for inhibition at 10 µM: read-out: FASN % Effect @1E−05M
T1 construct: 10 μL hFASN enzyme (full length, 300 ng, purified in house); made in house
T1 sequence (P49327 whole entry): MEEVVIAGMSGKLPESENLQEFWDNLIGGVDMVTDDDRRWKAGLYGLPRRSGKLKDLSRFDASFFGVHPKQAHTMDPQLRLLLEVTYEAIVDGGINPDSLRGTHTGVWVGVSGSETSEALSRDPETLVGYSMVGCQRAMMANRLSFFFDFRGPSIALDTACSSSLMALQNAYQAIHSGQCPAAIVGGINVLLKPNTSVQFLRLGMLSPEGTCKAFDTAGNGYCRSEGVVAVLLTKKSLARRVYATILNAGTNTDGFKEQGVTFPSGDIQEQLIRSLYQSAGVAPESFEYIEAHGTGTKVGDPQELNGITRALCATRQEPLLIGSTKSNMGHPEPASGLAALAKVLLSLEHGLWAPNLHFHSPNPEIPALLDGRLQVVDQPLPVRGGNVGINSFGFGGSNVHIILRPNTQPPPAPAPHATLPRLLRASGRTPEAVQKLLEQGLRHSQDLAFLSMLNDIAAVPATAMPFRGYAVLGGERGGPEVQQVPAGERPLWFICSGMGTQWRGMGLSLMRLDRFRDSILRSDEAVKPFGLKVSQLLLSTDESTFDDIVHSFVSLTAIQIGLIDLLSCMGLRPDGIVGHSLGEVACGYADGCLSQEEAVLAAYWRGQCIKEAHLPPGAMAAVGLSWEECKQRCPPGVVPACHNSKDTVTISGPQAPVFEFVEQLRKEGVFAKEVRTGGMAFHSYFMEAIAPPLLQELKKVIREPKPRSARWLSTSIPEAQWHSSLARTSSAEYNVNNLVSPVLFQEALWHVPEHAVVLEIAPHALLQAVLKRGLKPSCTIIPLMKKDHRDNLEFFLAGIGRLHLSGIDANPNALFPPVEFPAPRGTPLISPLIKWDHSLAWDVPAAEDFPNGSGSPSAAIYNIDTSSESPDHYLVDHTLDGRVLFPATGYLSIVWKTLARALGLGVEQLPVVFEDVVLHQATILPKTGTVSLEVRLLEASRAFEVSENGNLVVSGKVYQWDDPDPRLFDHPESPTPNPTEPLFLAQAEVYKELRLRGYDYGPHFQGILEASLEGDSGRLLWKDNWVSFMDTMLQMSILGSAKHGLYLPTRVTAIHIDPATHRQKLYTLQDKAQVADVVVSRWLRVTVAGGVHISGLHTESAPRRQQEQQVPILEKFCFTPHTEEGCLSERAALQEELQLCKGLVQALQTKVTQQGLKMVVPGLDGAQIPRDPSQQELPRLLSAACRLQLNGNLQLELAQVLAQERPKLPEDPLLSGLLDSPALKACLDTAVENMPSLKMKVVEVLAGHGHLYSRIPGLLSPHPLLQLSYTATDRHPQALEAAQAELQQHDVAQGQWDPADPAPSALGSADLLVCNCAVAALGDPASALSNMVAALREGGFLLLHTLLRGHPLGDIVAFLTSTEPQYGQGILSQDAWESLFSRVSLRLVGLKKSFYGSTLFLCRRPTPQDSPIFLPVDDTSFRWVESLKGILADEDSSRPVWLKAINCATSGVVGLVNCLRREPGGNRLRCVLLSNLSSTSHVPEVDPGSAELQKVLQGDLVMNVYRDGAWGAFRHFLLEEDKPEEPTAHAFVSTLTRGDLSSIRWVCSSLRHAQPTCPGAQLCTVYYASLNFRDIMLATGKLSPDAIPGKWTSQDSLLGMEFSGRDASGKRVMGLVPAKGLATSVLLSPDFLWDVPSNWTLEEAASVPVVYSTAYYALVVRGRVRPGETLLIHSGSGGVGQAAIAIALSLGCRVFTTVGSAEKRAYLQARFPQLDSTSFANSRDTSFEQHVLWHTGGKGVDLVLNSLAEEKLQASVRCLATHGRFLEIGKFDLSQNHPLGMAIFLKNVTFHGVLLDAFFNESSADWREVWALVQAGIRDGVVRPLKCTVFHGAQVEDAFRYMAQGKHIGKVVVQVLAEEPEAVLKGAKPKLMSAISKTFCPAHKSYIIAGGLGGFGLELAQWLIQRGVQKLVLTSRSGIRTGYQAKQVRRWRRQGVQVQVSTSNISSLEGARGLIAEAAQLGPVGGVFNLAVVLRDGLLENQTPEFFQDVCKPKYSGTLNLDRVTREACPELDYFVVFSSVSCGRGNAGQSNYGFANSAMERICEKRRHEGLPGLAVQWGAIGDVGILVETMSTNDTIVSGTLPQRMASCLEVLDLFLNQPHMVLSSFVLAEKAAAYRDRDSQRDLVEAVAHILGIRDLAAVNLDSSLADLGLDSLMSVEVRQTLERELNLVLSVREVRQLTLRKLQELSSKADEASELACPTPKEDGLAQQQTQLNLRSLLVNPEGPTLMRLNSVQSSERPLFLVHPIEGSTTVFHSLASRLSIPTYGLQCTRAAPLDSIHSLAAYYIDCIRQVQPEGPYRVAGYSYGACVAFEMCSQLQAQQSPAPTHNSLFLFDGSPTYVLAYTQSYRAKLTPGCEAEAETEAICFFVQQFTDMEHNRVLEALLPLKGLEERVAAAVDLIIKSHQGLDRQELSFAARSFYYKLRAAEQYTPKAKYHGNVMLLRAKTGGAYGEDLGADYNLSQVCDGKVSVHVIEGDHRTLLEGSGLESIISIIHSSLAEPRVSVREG
Outline: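 Eight compound concentrations (0.01–30 μM) tested in pH 7.5 phosphate buffer with DTT; human full-length enzyme converted [3H]-acetyl-CoA plus malonyl-CoA, with NADPH, over 60 min at room temperature. Hydrophobic [3H]-palmitate detected by bead proximity scintillation imaging; control-normalised data fitted for IC50/pIC50.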

[2] = biological target: T2, FASN Keto-reductase Domain (Homo sapiens, UniProt P49327); assay: Fatty Acid Synthase Keto-Reductase Domain (FASN KR) Inhibition; format: biochemical; settings: mean where tested more than once; read-out: FASN K-R Domain pIC50 (converted)
T2 construct: 10 μL hFASN enzyme (full length, 300 ng, purified in house) and 360 μM NADPH; made in house
T2 sequence (P49327 whole entry, the tested form may be a part): as the sequence (P49327 whole entry) above
Outline: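 Keto-reductase activity followed as NADPH consumption (A340 drop between 0 and 20 min, room temperature) using in-house full-length hFASN, 360 μM NADPH and ethyl acetoacetate substrate (180 mM stock), pH 7.5 phosphate buffer.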

[3] = system: A2780 ovarian cells; assay: A2780 Ovarian Cell Proliferation Assay in Lipid Reduced Medium, without Palmitate; format: cell-based; settings: Homo sapiens, A2780; lipid reduced medium, without palmitate, 96 h, MTT; read-out: Proliferation A2780 w/o Palmitate pIC50 (converted)
Outline: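 A2780 cells were seeded in 10% FCS medium and switched next day to 10% lipid-reduced serum without palmitate. Compounds at 0.01–30 μM were added with 0.2% DMSO, 0.2% fatty-acid-free BSA and 0.25% ethanol final. After 96 h, MTT absorbance at 544 nm was normalized to plate controls, and IC50/pIC50 came from a 4-parameter logistic fit.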

[4] = system: A2780 ovarian cells; assay: A2780 Ovarian Cell Proliferation Assay in Lipid Reduced Medium, with Palmitate (control); format: cell-based; settings: Homo sapiens, A2780; lipid reduced medium, 25 μM palmitate, 96 h, MTT; read-out: Proliferation A2780 with Palmitate pIC50 (converted)
Outline: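 Read-out was MTT absorbance at 544 nm after 96 h at 37 °C. Cells grown overnight in RPMI1640/10% FCS were moved to 10% lipid-reduced serum with compound plus palmitate (final 25 μM, 0.2% fatty-acid-free BSA, 0.2% DMSO). IC50 came from least-squares curve fitting, expressed as −log(IC50).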

pIC50 [1] | inhibition at 10 µM [1] | IC50 [2] | IC50 [3] | IC50 [4] | SMILES
6.44 | 79% | 525 nM | 692 nM | 2510 nM | Cc1ccc(C(=O)N2CCC(c3ccc(-c4cccc(F)c4)cc3)CC2)cc1NC(=O)c1ccc(NC(C)C)nc1 [Compound 230, N-(5-(4-(3′-fluoro-[1,1′-biphenyl]-4-yl)piperidine-1-carbonyl)-2-methylphenyl)-6-(isopropylamino)nicotinamide]
7.47 | 114% | 107 nM | 115 nM | > 10000 nM | COc1ccc(C(=O)N2CCC(c3ccc(-c4cnn(C)c4)cc3)CC2)cc1NC(=O)c1ccc(Cl)nc1 [Compound 231, 6-chloro-N-(2-methoxy-5-(4-(4-(1-methyl-1H-pyrazol-4-yl)phenyl)piperidine-1-carbonyl)phenyl)nicotinamide]
6.49 | 85% | 490 nM | 389 nM | 6610 nM | Cc1ccc(C(=O)N2CCC(c3ccc(-c4ccccc4C)cc3)CC2)cc1NC(=O)c1ccc(NC(C)C)nc1 [Compound 232, 6-(isopropylamino)-N-(2-methyl-5-(4-(2′-methyl-[1,1′-biphenyl]-4-yl)piperidine-1-carbonyl)phenyl)nicotinamide]
6.24 | 72% | 776 nM | 759 nM | 955 nM | Cc1cccc(-c2ccc(C3CCN(C(=O)c4ccc(C)c(NC(=O)c5ccc(NC(C)C)nc5)c4)CC3)cc2)c1 [Compound 233, 6-(isopropylamino)-N-(2-methyl-5-(4-(3′-methyl-[1,1′-biphenyl]-4-yl)piperidine-1-carbonyl)phenyl)nicotinamide]
7.27 | 112% | 102 nM | 74.1 nM | 1580 nM | Cc1ccc(C(=O)N2CCC(c3ccc(-c4ccoc4)cc3)CC2)cc1NC(=O)c1ccc(NC(C)C)nc1 [Compound 235, N-(5-(4-(4-(furan-3-yl)phenyl)piperidine-1-carbonyl)-2-methylphenyl)-6-(isopropylamino)nicotinamide]
~6.51 | 74% | 355 nM | 603 nM | 1950 nM | Cc1ccc(C(=O)N2CCC(c3ccc(-c4cccs4)cc3)CC2)cc1NC(=O)c1ccc(NC(C)C)nc1 [Compound 236, 6-(isopropylamino)-N-(2-methyl-5-(4-(4-(thiophen-2-yl)phenyl)piperidine-1-carbonyl)phenyl)nicotinamide]
6.89 | 101% | 380 nM | 166 nM | > 10000 nM | Cc1ccc(C(=O)N2CCC(c3ccc(-c4cnn(C)c4)cc3)C2)cc1NC(=O)c1ccc(NC(C)C)nc1 (stereo not shown) [Compound 237, 6-(isopropylamino)-N-(2-methyl-5-(3-(4-(1-methyl-1H-pyrazol-4-yl)phenyl)pyrrolidine-1-carbonyl)phenyl)nicotinamide]
6.32 | 100% | 1020 nM | 741 nM | > 10000 nM | Cc1ccc(C(=O)N2CCC(c3ccc(-c4cnn(C)c4)cc3)CC2)cc1NC(=O)[C@@H]1CCCN1C [Compound 238, (S)-1-methyl-N-(2-methyl-5-(4-(4-(1-methyl-1H-pyrazol-4-yl)phenyl)piperidine-1-carbonyl)phenyl)pyrrolidine-2-carboxamide]
6.91 | 110% | 457 nM | 195 nM | > 10000 nM | Cc1ccc(C(=O)N2CCC(c3ccc(-c4cnn(C)c4)cc3)CC2)cc1NC(=O)[C@H]1CCCN1C [Compound 239, (R)-1-methyl-N-(2-methyl-5-(4-(4-(1-methyl-1H-pyrazol-4-yl)phenyl)piperidine-1-carbonyl)phenyl)pyrrolidine-2-carboxamide]
7.08 | 106% | 407 nM | 162 nM | > 10000 nM | Cc1ccc(C(=O)N2CCC(c3ccc(-c4cnn(C)c4)cc3)CC2)cc1NC(=O)C1CN(C2CCC2)C1 [Compound 240, 1-cyclobutyl-N-(2-methyl-5-(4-(4-(1-methyl-1H-pyrazol-4-yl)phenyl)piperidine-1-carbonyl)phenyl)azetidine-3-carboxamide]
6.84 | 101% | 468 nM | 148 nM | > 10000 nM | Cc1ccc(C(=O)N2CCC(c3ccc(-c4cnn(C)c4)cc3)CC2)cc1NC(=O)C1CCN(C2CCC2)C1 (stereo not shown) [Compound 241, 1-cyclobutyl-N-(2-methyl-5-(4-(4-(1-methyl-1H-pyrazol-4-yl)phenyl)piperidine-1-carbonyl)phenyl)pyrrolidine-3-carboxamide]
7.14 | 105% | 158 nM | 95.5 nM | > 10000 nM | CCCCN1CC(C(=O)Nc2cc(C(=O)N3CCC(c4ccc(-c5cnn(C)c5)cc4)CC3)ccc2C)C1 [Compound 242, 1-butyl-N-(2-methyl-5-(4-(4-(1-methyl-1H-pyrazol-4-yl)phenyl)piperidine-1-carbonyl)phenyl)azetidine-3-carboxamide]
6.89 | 105% | 186 nM | 240 nM | 7080 nM | CCCCCCN1CC(C(=O)Nc2cc(C(=O)N3CCC(c4ccc(-c5cnn(C)c5)cc4)CC3)ccc2C)C1 [Compound 243, 1-hexyl-N-(2-methyl-5-(4-(4-(1-methyl-1H-pyrazol-4-yl)phenyl)piperidine-1-carbonyl)phenyl)azetidine-3-carboxamide]
7.35 | 106% | 191 nM | 95.5 nM | 8320 nM | Cc1ccc(C(=O)N2CCC(c3ccc(-c4cnn(C)c4)cc3)CC2)cc1NC(=O)c1nc(Br)cs1 [Compound 244, 4-bromo-N-(2-methyl-5-(4-(4-(1-methyl-1H-pyrazol-4-yl)phenyl)piperidine-1-carbonyl)phenyl)thiazole-2-carboxamide]
7.47 | 108% | 75.9 nM | ~31.6 nM | > 10000 nM | Cc1ccc(C(=O)N2CCC(c3ccc(-c4cn(C)nc4C)cc3)CC2)cc1NC(=O)c1ccc(NC(C)C)nc1 [Compound 245, N-(5-(4-(4-(1,3-dimethyl-1H-pyrazol-4-yl)phenyl)piperidine-1-carbonyl)-2-methylphenyl)-6-(isopropylamino)nicotinamide]
7.27 | 110% | 245 nM | 112 nM | 8320 nM | Cc1ccc(C(=O)N2CCC(c3ccc(-c4cnn(C)c4C)cc3)CC2)cc1NC(=O)c1ccc(NC(C)C)nc1 [Compound 246, N-(5-(4-(4-(1,5-dimethyl-1H-pyrazol-4-yl)phenyl)piperidine-1-carbonyl)-2-methylphenyl)-6-(isopropylamino)nicotinamide]
7.47 | 112% | 91.2 nM | 38.9 nM | 6170 nM | Cc1ccc(C(=O)N2CCC(c3ccc(-c4cnn(C(C)C)c4)cc3)CC2)cc1NC(=O)c1ccc(NC(C)C)nc1 [Compound 247, N-(5-(4-(4-(1-isopropyl-1H-pyrazol-4-yl)phenyl)piperidine-1-carbonyl)-2-methylphenyl)-6-(isopropylamino)nicotinamide]
7.36 | 108% | 93.3 nM | 35.5 nM | 3550 nM | Cc1ccc(C(=O)N2CCC(c3ccc(-c4cnn(C5CCC5)c4)cc3)CC2)cc1NC(=O)c1ccc(NC(C)C)nc1 [Compound 248, N-(5-(4-(4-(1-cyclobutyl-1H-pyrazol-4-yl)phenyl)piperidine-1-carbonyl)-2-methylphenyl)-6-(isopropylamino)nicotinamide]
7.27 | 109% | 100 nM | 72.4 nM | 5250 nM | Cc1ccc(C(=O)N2CCC(c3ccc(-c4cnn(CC5CC5)c4)cc3)CC2)cc1NC(=O)c1ccc(NC(C)C)nc1 [Compound 249, N-(5-(4-(4-(1-(cyclopropylmethyl)-1H-pyrazol-4-yl)phenyl)piperidine-1-carbonyl)-2-methylphenyl)-6-(isopropylamino)nicotinamide]
6.64 | 65% | 209 nM | 490 nM | 1620 nM | Cc1ccc(C(=O)N2CCC(c3ccc(-c4ccc(F)cc4)cc3)CC2)cc1NC(=O)c1ccc(NC(C)C)nc1 [Compound 250, N-(5-(4-(4′-fluoro-[1,1′-biphenyl]-4-yl)piperidine-1-carbonyl)-2-methylphenyl)-6-(isopropylamino)nicotinamide]
